{
  "source": "patent US12336980B2",
  "about": "“Dosing regimen for a selective S1P1 receptor agonist” (Vanda Pharmaceuticals Inc., priority 2014, dated 2025)",
  "key": {"[1]": {"assay": "Plasma concentrations of ponesimod by LC-MS/MS", "type": "in vivo, human", "description": "The enrolled subjects came to the study center for each treatment period on Day −2 and participated in a run-in (all study procedures performed without study drug administration) on Day −1. On Day 1, subjects were randomized to one of the two possible sequences of the two up-titration regimens A and B (ratio 1:1). On Day 1, all subjects received placebo; the first study drug administration (or its matching placebo) occurred on Day 2. Regimen A consisted of the novel up-titration regimen: ponesimod was administered once daily (o.d.) orally at a dose of 2 mg on Day 2 and Day 3, 3 mg on Day 4 and Day 5, 4 mg on Day 6 and Day 7, 5 mg on Day 8, 6 mg on Day 9, 7 mg on Day 10, 8 mg on Day 11, 9 mg on Day 12, 10 mg on Day 13 and Day 14, and 20 mg on Day 15. The reference regimen (regimen B) was based on previous studies (Olsson T. et al., Oral ponesimod in relapsing-remitting multiple sclerosis: a randomised phase II trial. J Neurol Neurosurg Psychiatry. 2014; 85 (11): 1198-1208; and Vaclavkova A. et al., Oral ponesimod in patients with chronic plaque psoriasis: a randomised, double-blind, placebo-controlled phase 2 trial. Lancet. 2014; 384 (9959): 2036-2045) and consisted of an o.d. oral administration of ponesimod at a dose of 10 mg for 7 days (i.e., from Day 2 to Day 8) and 20 mg on Day 9. From Day 10 to Day 15 subjects received o.d. the matching placebo. In the placebo group (1:1 sex ratio), subjects received placebo from Day 1 to Day 15. […]\nBlood samples of about 3 mL were collected in ethylene di-amine tetra acetic acid tubes at pre-dose and 3 h after study drug administration from Day 1 to Day 15 in each treatment period. […] Plasma concentrations of ponesimod were determined using a validated liquid chromatography coupled to tandem mass spectrometry assay with a lower limit of quantification of 1 ng/mL (Brossard P. et al., Pharmacokinetics and pharmacodynamics of ponesimod, a selective S1 P1 receptor modulator, in the first-in-human study. British journal of clinical pharmacology. 2013; 76 (6): 888-896). […]"}, "healthy subjects": {"system": "healthy subjects", "assay": "Pulmonary function tests and clinical laboratory (hematology)", "type": "in vivo, human", "details": "hemoglobin, hematocrit, red blood cell count, basophils, eosinophils, neutrophils, monocytes, platelet count", "protocol": "Safety and tolerability were evaluated by monitoring adverse events (AEs), vital signs measurements (supine blood pressure), pulmonary function tests (PFTs; i.e., FEV1 and FVC), clinical laboratory, physical, and neurological examinations. Recording of blood pressure was performed at the same time-points as 12-lead ECG."}},
  "data": [
    {"smiles": "CCC/N=C1\\S/C(=C\\c2ccc(OC[C@H](O)CO)c(Cl)c2)C(=O)N1c1ccccc1C", "note": "[ponesimod, (R)-5-[3-chloro-4-(2,3-dihydroxy-propoxy)-benz[Z]ylidene]-2-([Z]-propylimino)-3-o-tolyl-thiazolidin-4-one]", "values": [
      {"measurement": "concentration at 3 h", "setting": "[1]; human, plasma, oral, 20 mg, regimen A, Day 15, read-out: plasma concentration 3 h after 20 mg of ponesimod", "result": "144 ± 36.9", "unit": "ng/mL"},
      {"measurement": "plasma concentration 3 h after 20 mg of ponesimod", "setting": "[1]; regimen B, Day 9", "result": "144.0 ± 41.9", "unit": "ng/mL"},
      {"measurement": "10 mg steady-state conditions attained", "setting": "[1]; regimen B, visual inspection", "result": "Day 6"},
      {"measurement": "effect on PFT variables and hematology variables", "setting": "healthy subjects", "result": "No treatment effect"}
    ]}
  ]
}
